# Values quoted from earlier work, collected in patent publication US20060003004A1 (Collegium Pharmaceutical, Inc., priority 2002, published 2006).
# Read-outs that look alike come from different tables or passages of the source. Marks after values point to notes of the source that are not given here.
# Legend:
# [1] = Phase 2 and Phase 3 depression studies
# [2] = n=1,033
# [3] = tested on: alpha adrenergic receptors
# [4] = tested on: beta adrenergic receptors
# [5] = tested on: beta adrenoceptors in rat cortex; conditions: after chronic administration
# [6] = for Participants who failed the dose escalation: escalation to 200 mg daily
# [7] = intravenous, 10 patients
# uptake of dopamine = uptake of dopamine (Homo sapiens, UniProt Q01959)
# [8] = not given; remark: listed apart in the source
# [9] = not given; remark: listed apart in the source
# [10] = 40-120 mg/day, 1032 patients
# [11] = 100 mg/day twice daily, N = 1871
# [12] = 200 mg/day twice daily, N = 865
# uptake of dopamine, sequence (Q01959 whole entry): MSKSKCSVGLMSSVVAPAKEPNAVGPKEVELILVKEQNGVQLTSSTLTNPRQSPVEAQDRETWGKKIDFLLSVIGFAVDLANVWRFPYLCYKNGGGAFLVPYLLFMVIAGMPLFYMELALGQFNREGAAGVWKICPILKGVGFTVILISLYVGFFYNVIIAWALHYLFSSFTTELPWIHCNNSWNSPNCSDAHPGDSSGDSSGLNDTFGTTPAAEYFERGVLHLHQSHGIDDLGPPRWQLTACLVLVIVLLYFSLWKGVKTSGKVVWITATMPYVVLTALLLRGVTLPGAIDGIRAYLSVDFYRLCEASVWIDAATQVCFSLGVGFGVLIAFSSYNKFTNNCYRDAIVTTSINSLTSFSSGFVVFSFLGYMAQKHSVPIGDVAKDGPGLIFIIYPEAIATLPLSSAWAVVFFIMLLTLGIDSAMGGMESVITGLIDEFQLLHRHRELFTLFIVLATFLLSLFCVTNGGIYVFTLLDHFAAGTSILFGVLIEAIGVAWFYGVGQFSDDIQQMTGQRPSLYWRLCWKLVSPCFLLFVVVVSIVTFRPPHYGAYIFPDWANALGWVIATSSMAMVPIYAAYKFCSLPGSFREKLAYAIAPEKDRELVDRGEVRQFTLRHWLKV
smiles,measurement,setting,value
COc1ccc(C(CN(C)C)C2(O)CCCCC2)cc1 (stereo not shown) [venlafaxine],Patients who discontinued treatment that did so due to nausea,[1],~32%
same,Adverse experience incidence: anorexia,[2],11%
same,Adverse experience incidence: anxiety,[2],6%
same,Adverse experience incidence: constipation,[2],15%
same,Adverse experience incidence: dizziness,[2],19%
same,Adverse experience incidence: dry mouth,[2],22%
same,Adverse experience incidence: insomnia,[2],18%
same,Adverse experience incidence: nausea,[2],37%
same,Adverse experience incidence: nervousness,[2],13%
same,Adverse experience incidence: somnolence,[2],23%
same,Adverse experience incidence: tremor,[2],5%
same,Adverse experience incidence: vomiting,[2],6%
"CCN(CC)C(=O)C1(c2ccccc2)CC1CN (stereo not shown) [milnacipran, Milnacipran]",Affinity for alpha adrenergic receptors,[3],no affinity
same,Affinity for dopaminergic receptors,dopaminergic receptors,no affinity
same,Parent drug eliminated unchanged via the kidneys,humans,90%
same,half-life,humans,approximately 8 hours
same,Time within which oral doses are absorbed and distributed in the body,oral doses,1 to 2 h
same,Metabolites as share of the concentration of the parent drug,ten metabolites formed in the liver,about 10%
same,Affinity for histaminergic receptors,histaminergic receptors,no affinity
same,Affinity for beta adrenergic receptors,[4],no affinity
same,Effect on number of beta adrenoceptors in rat cortex,[5],does not affect
same,"Global pain score, mean value","[6]; 1-7 scale (1 very much improved, 4 unchanged, 7 very much worse), FMS patients who reached endpoint, placebo 4.3, p=0.0001",2.3
same,Participants who failed the dose escalation,[6]; BID-IR group,6%
same,Participants who failed the dose escalation,[6]; QD-IR group,19%
same,Patients reporting transient nausea,[7],five of them reported transient nausea
same,Affinity for muscarinic receptors,muscarinic receptors,no affinity
same,Effect on uptake of dopamine,uptake of dopamine,does not affect
same,Frequency of Adverse Experiences: Abdominal Pain,"[8]; 50 mg/day twice daily, N = 426",6.1%
same,Frequency of Adverse Experiences: Agitation,"[8]; 50 mg/day twice daily, N = 426",1.6%
same,Frequency of Adverse Experiences: Anxiety,"[8]; 50 mg/day twice daily, N = 426",2.8%
same,Frequency of Adverse Experiences: Dry mouth,"[8]; 50 mg/day twice daily, N = 426",9.4%
same,Frequency of Adverse Experiences: Dyspepsia,"[8]; 50 mg/day twice daily, N = 426",3.5%
same,Frequency of Adverse Experiences: Dysuria,"[8]; 50 mg/day twice daily, N = 426",1.4%
same,Frequency of Adverse Experiences: Fatigue,"[8]; 50 mg/day twice daily, N = 426",2.8%
same,Frequency of Adverse Experiences: Headache,"[8]; 50 mg/day twice daily, N = 426",14.6%
same,Frequency of Adverse Experiences: Hot flushes,"[8]; 50 mg/day twice daily, N = 426",1.6%
same,Frequency of Adverse Experiences: Increased Sweating,"[8]; 50 mg/day twice daily, N = 426",14.0%
same,Frequency of Adverse Experiences: Insomnia,"[8]; 50 mg/day twice daily, N = 426",9.2%
same,Frequency of Adverse Experiences: Nausea,"[8]; 50 mg/day twice daily, N = 426",12.7%
same,Frequency of Adverse Experiences: Nervousness,"[8]; 50 mg/day twice daily, N = 426",4.2%
same,Frequency of Adverse Experiences: Palpitations,"[8]; 50 mg/day twice daily, N = 426",2.3%
same,Frequency of Adverse Experiences: Somnolence,"[8]; 50 mg/day twice daily, N = 426",5.4%
same,Frequency of Adverse Experiences: Tremor,"[8]; 50 mg/day twice daily, N = 426",0.9%
same,Frequency of Adverse Experiences: Vertigo,"[8]; 50 mg/day twice daily, N = 426",1.6%
same,Frequency of Adverse Experiences: Vomiting,"[8]; 50 mg/day twice daily, N = 426",3.8%
same,Frequency of Adverse Experiences: Agitation,[8]; [11],3.3%
same,Frequency of Adverse Experiences: Anxiety,[8]; [11],4.1%
same,Frequency of Adverse Experiences: Dry mouth,[8]; [11],7.9%
same,Frequency of Adverse Experiences: Dyspepsia,[8]; [11],2.1%
same,Frequency of Adverse Experiences: Dysuria,[8]; [11],2.1* %
same,Frequency of Adverse Experiences: Fatigue,[8]; [11],2.5%
same,Frequency of Adverse Experiences: Headache,[8]; [11],8.4%
same,Frequency of Adverse Experiences: Hot flushes,[8]; [11],3.0%
same,Frequency of Adverse Experiences: Increased Sweating,[8]; [11],4.3* %
same,Frequency of Adverse Experiences: Insomnia,[8]; [11],6.1%
same,Frequency of Adverse Experiences: Nausea,[8]; [11],11.2%
same,Frequency of Adverse Experiences: Nervousness,[8]; [11],2.0%
same,Frequency of Adverse Experiences: Palpitations,[8]; [11],2.7%
same,Frequency of Adverse Experiences: Somnolence,[8]; [11],2.3%
same,Frequency of Adverse Experiences: Tremor,[8]; [11],2.5%
same,Frequency of Adverse Experiences: Vertigo,[8]; [11],5.0%
same,Frequency of Adverse Experiences: Vomiting,[8]; [11],3.9%
same,Frequency of Adverse Experiences: Abdominal Pain,[8]; [12],7.6%
same,Frequency of Adverse Experiences: Agitation,[8]; [12],2.9%
same,Frequency of Adverse Experiences: Anxiety,[8]; [12],5.1%
same,Frequency of Adverse Experiences: Dry mouth,[8]; [12],9.0%
same,Frequency of Adverse Experiences: Dyspepsia,[8]; [12],2.2%
same,Frequency of Adverse Experiences: Dysuria,[8]; [12],3.7* %
same,Frequency of Adverse Experiences: Fatigue,[8]; [12],4.4%
same,Frequency of Adverse Experiences: Headache,[8]; [12],13.5%
same,Frequency of Adverse Experiences: Hot flushes,[8]; [12],3.6%
same,Frequency of Adverse Experiences: Increased Sweating,[8]; [12],11.6* %
same,Frequency of Adverse Experiences: Insomnia,[8]; [12],11.3%
same,Frequency of Adverse Experiences: Nausea,[8]; [12],19.4* %
same,Frequency of Adverse Experiences: Nervousness,[8]; [12],2.8%
same,Frequency of Adverse Experiences: Palpitations,[8]; [12],4.6%
same,Frequency of Adverse Experiences: Somnolence,[8]; [12],3.5%
same,Frequency of Adverse Experiences: Tremor,[8]; [12],6.7* %
same,Frequency of Adverse Experiences: Vertigo,[8]; [12],4.5%
same,Frequency of Adverse Experiences: Vomiting,[8]; [12],7.9* %
same,Adverse events: headache,[9]; 100 mg/day twice daily,9%
same,Adverse events: abdominal pain,[9]; 200 mg/day twice daily,7%
same,Adverse events: headache,[9]; 200 mg/day twice daily,8%
same,Adverse events: nausea and vomiting,[9]; 200 mg/day twice daily,7%
CNCC[C@H](Oc1cccc2ccccc12)c1cccs1 [duloxetine],"Rate of adverse events nausea, dry mouth, fatigue, dizziness, constipation, somnolence, decreased appetite, and sweating",[10],more than 5%
